Structures can show the parent of a compound that is named as a salt.
Biological target: T1, rat histamine H3 receptors (Rattus norvegicus, UniProt Q9QYN8)
T1 construct: Frozen rat frontal brain or frozen human post-mortem frontal brain is homogenized; from tissue; host or cells: rat frontal brain membranes
Assay: Rat H3 binding (3H-N-methylhistamine displacement, rat frontal brain membranes)
Details: radioligand 1 nM 3H-N-methylhistamine, 1 hour incubation
Procedure: The in vitro affinity of the compounds in the present invention at the rat or human histamine H3 receptors can be determined according to the following procedure. Frozen rat frontal brain or frozen human post-mortem frontal brain is homogenized in 20 volumes of cold 50 mM Tris HCl containing 2 mM MgCl2 (pH to 7.4 at 4 degrees C.). The homogenate is then centrifuged at 45,000 G for 10 minutes. The supernatant is decanted and the membrane pellet re-suspended by Polytron in cold 50 mM Tris HCl containing 2 mM MgCl2 (pH to 7.4 at 4 degrees C.) and centrifuged again. The final pellet is re-suspended in 50 mM Tris HCl containing 2 mM MgCl2 (pH to 7.4 at 25 degrees C.) at a concentration of 12 mg/mL. Dilutions of compounds are made in 10% DMSO/50 mM Tris buffer (pH 7.4) (at 10×final concentration, so that the final DMSO concentration is 1%). Incubations are initiated by the addition of membranes (200 microliters) to 96 well V-bottom polypropylene plates containing 25 microliters of drug dilutions and 25 microliters of radioligand (1 nM final concentration ^3H—N-methylhistamine). After a 1 hour incubation, assay samples are rapidly filtered through Whatman GF/B filters and rinsed with ice-cold 50 mM Tris buffer (pH 7.4) using a Skatron cell harvester. Radioactivity is quantified using a BetaPlate scintillation counter.

T1 sequence (Q9QYN8 whole entry): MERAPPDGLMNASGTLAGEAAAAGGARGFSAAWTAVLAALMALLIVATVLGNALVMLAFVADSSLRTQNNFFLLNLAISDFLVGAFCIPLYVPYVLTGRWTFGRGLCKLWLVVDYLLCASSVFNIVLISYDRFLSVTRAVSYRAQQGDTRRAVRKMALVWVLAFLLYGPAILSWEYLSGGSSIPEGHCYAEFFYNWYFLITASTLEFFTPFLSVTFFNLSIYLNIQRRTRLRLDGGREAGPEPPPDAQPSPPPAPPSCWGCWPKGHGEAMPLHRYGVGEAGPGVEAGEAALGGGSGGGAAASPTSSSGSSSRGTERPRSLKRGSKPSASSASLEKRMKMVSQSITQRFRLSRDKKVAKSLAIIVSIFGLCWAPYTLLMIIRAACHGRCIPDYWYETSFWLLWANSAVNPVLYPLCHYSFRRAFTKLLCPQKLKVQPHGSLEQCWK

Compound | Ki [nM]
COc1ncc(-c2ccc(-c3ccc([C@@H](C)N4CCCC4)cc3)cc2)c(OC)n1 [Example 5, (R)-2,4-Dimethoxy-5-[4′-(1-pyrrolidin-1-ylethyl)-biphenyl-4-yl]-pyrimidine] | 45
C[C@@H](c1ccc(-c2ccc(C3CCNCC3)cc2)cc1)N1CCCC1 [Example 73, (S)-(−)4-[4′-(1-Pyrrolidin-1-ylethyl)-biphenyl-4-yl]-piperidine] | 72.6
CC(c1ccc(-c2ccc(-c3ccncc3)cc2)cc1)N1CCCC1 (stereo not drawn) [Example 24, 4-[4′-(1-Pyrrolidin-1-ylethyl)-biphenyl-4-yl]-pyridine] | 52
COc1ncc(-c2ccc(-c3ccc(C(C)N4CCCC4)cc3)cc2)cn1 (stereo not drawn) [Example 92, 2-Methoxy-5-[4′-(1-pyrrolidin-1-ylethyl)-biphenyl-4-yl]-pyrimidine] | 42
CC(c1ccc(-c2ccc(-c3cnc(Cl)nc3)cc2)cc1)N1CCCC1 (stereo not drawn) [Example 91, 2-Chloro-5-[4′-(1-pyrrolidin-1-ylethyl)-biphenyl-4-yl]-pyrimidine] | 38
CC(c1ccc(-c2ccc(-c3cncnc3)cc2)cc1)N1CCCC1 (racemic) [Example 7, (R)-(±)-5-[4′-(1-Pyrrolidin-1-ylethyl)-biphenyl-4-yl]-pyrimidine] | 22.7
Cc1cc(C2CCCN2C)ccc1-c1ccc(CN2CCCCC2)cc1 (stereo not drawn) [Example 79, 1-[2′-Methyl-4′-(1-methylpyrrolidin-2-yl)-biphenyl-4-ylmethyl]-piperidine] | 13.9
C[C@H](c1ccc(-c2ccc(-c3cccnc3)cc2)cc1)N1CCCC1 [Example 4] | 35.8
CC(c1ccc(-c2ccc(-c3cncnc3)cc2)cc1)N1CCCC1 (racemic) [Example 6, (±)-5-[4′-(1-Pyrrolidin-1-ylethyl)-biphenyl-4-yl]-pyrimidine] | 61.8
CC(c1ccc(-c2ccc(C3CCNCC3)cc2)cc1)N1CCCC1 (racemic) [Example 72, (R)-(±)-4-[4′-(1-Pyrrolidin-1-ylethyl)-biphenyl-4-yl]-piperidine] | 3.5
C[C@@H](c1ccc(-c2ccc(-c3ccncc3)cc2)cc1)N1CCCC1 [Example 2, (S)-(−)-4-[4′-(1-Pyrrolidin-1-ylethyl)-biphenyl-4-yl]-pyridine] | 137
CC(c1ccc(-c2ccc(-c3ccncc3)cc2)cc1)N(C)C (stereo not drawn) [Example 39, Dimethyl-[1-(4′-pyridin-4-ylbiphenyl-4-yl)-ethyl]-amine] | > 140
CC(c1ccc(-c2ccc(-c3cncnc3)cc2F)cc1)N1CCCC1 (stereo not drawn) [Example 94, 5-[2-Fluoro-4′-(1-pyrrolidin-1-ylethyl)-biphenyl-4-yl]-pyrimidine] | 23
CC(c1ccc(-c2ccc(-c3cncnc3)cc2)cc1)N1CCCC1 (stereo not drawn) [Example 20, 5-[4′-(1-Pyrrolidin-1-ylethyl)-biphenyl-4-yl]-pyrimidine] | 25.2
CC(c1ccc(-c2ccc(-c3ccccc3C(=O)N(C(C)C)C(C)C)cc2)cc1)N1CCCC1 (stereo not drawn) [Example 28, 4″-(1-Pyrrolidin-1-ylethyl)-[1,1′;4′,1″]terphenyl-2-carboxylic acid diisopropylamide] | 13.6
CC(c1ccc(-c2ccc(-c3cnc(O)nc3)cc2)cc1)N1CCCC1 (stereo not drawn) [Example 90, 5-[4′-(1-Pyrrolidin-1-ylethyl)-biphenyl-4-yl]-pyrimidin-2-ol] | 44
CC(c1ccc(-c2ccc(-c3ccc(S(C)(=O)=O)cc3)cc2)cc1)N1CCCC1 (stereo not drawn) [Example 35, 1-[1-(4-Methanesulfonyl-[1,1′;4′,1″]terphenyl-4″-yl)-ethyl]-pyrrolidine] | 22.7
CC(c1ccc(-c2ccc(-c3ccncc3)cc2)cc1)N1CCCC1 (racemic) [Example 1, (R)-(±)-4-[4′-(1-Pyrrolidin-1-ylethyl)-biphenyl-4-yl]-pyridine] | 39.4
Cc1cc(C2CCCN2C)ccc1-c1ccc(CNCc2ccc(Cl)cc2)cc1 (stereo not drawn) [Example 96, (4-Chlorobenzyl)-[2′-methyl-4′-(1-methylpyrrolidin-2-yl)-biphenyl-4-ylmethyl]-amine] | 14.7
CC(c1ccc(-c2ccc(C3CCNCC3)cc2)cc1)N1CCCC1 (racemic) [Example 74, (±)-4-[4′-(1-Pyrrolidin-1-yl-ethyl)-biphenyl-4-yl]-piperidine] | 10
CC(c1ccc(-c2ccc(-c3cccnc3)cc2)cc1)N1CCCC1 (stereo not drawn) [Example 9, 3-[4′-(1-Pyrrolidin-1-ylethyl)-biphenyl-4-yl]-pyridine] | 50
C[C@H](c1ccc(-c2ccc(C3CCN(C)CC3)cc2)cc1)N1CCCC1 [Example 77, (R)-1-Methyl-4-[4′-(1-Pyrrolidin-1-ylethyl)-biphenyl-4-yl]-piperidine] | 24.3
CC(c1ccc(-c2ccc(-c3cnc(N)nc3)cc2)cc1)N1CCCC1 (stereo not drawn) [Example 93, 5-[4′-(1-Pyrrolidin-1-ylethyl)-biphenyl-4-yl]-pyrimidin-2-ylamine] | 105
CCN1CCC(c2ccc(-c3ccc([C@@H](C)N4CCCC4)cc3)cc2)CC1 [Example 78, (R)-1-Ethyl-4-[4′-(1-pyrrolidin-1-ylethyl)-biphenyl-4-yl]-piperidine] | 21.3

Tested on: not given
Assay: not given
Details: not given

Compound | melting point [°C]
Cc1cc(C2CCCN2C)ccc1-c1ccc(CNCc2ccc(Cl)cc2)cc1 (stereo not drawn) (as salt: hydrochloride) [Example 96, (4-Chlorobenzyl)-[2′-methyl-4′-(1-methylpyrrolidin-2-yl)-biphenyl-4-ylmethyl]-amine] | 238.2 to 239.3
Cc1cc(C2CCCN2C)ccc1-c1ccc(CN2CCCCC2)cc1 (stereo not drawn) (as salt: HCl) [Example 79, 1-[2′-Methyl-4′-(1-methylpyrrolidin-2-yl)-biphenyl-4-ylmethyl]-piperidine] | 237.1 to 240
CC(c1ccc(-c2ccc(-c3cncnc3)cc2F)cc1)N1CCCC1 (stereo not drawn) (as salt: HCl) [Example 94, 5-[2-Fluoro-4′-(1-pyrrolidin-1-ylethyl)-biphenyl-4-yl]-pyrimidine] | 179.9 to 181.3

From patent US20050245543A1, “Histamine-3 receptor antagonists” (Pfizer Inc, priority 2004, published 2005)
